These results are taken from US8343990B2, “Substituted cyclopropyl compounds, compositions containing such compounds and methods of treatment” (Merck Sharp & Dohme Corp., priority 2008, dated 2013).

In this assay the target is T1, GPR119 receptor (UniProt Q8TDV5, S309L, species not given).
T1 sequence (Q8TDV5 1-335 S309L): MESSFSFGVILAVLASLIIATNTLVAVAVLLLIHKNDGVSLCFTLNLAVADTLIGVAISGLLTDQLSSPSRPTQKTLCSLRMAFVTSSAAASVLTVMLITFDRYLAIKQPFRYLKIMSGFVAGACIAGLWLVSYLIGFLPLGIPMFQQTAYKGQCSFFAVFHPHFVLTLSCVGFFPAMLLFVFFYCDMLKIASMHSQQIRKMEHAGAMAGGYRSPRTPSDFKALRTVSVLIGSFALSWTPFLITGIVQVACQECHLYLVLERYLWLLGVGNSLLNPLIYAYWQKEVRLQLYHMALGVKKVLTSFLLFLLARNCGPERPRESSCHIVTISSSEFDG
Briefly: GPR119 signaling, cyclic AMP (cAMP) homogenous time resolved fluorescence (HTRF) assay. It is filed as cell-based. To be noted: CHO cells with Gα15 and murine GPR119, or HEK293 Flp-In cells with human GPR119 S309L; table does not say which; read-out: Activity: inflection points, denoted as EC50 values (agonist activation of GPR119, cAMP). In a few lines: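 Agonist-induced cAMP measured in CHO cells expressing Gα15 plus murine GPR119, or HEK293 Flp-In cells expressing human S309L variant. Suspended cells exposed to compound titration 60 min at room temperature, lysed, HTRF read after 60 min; EC50 and efficacy versus internal agonist from 4-parameter fit.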
Take `Cc1cnc(N2CCC([C@H]3C[C@H]3CCOc3cc(C#N)nc(C)n3)CC2)nc1` (racemic) [Ex 40, Rac-cis-2-methyl-6-(2-{2-[1-(5-methylpyrimidin-2-yl)piperidin-4-yl]cyclopropyl}ethoxy)pyrimidine-4-carbonitrile]: the EC50 is under 10 nM. Then `Cc1nnc(-c2ccc(OCC[C@H]3C[C@H]3C3CCN(c4ncc(Cl)c(C)n4)CC3)cc2F)o1` (racemic) [Ex 87, Rac-cis-5-chloro-2-[4-(2-{2-[3-fluoro-4-(5-methyl-1,3,4-oxadiazol-2-yl)phenoxy]ethyl}cyclopropyl)piperidin-1-yl]-4-methylpyrimidine], with under 10 nM; and `Cc1nc(C#N)cc(OC[C@@H]2C[C@H]2CC2CCN(c3ncc(Cl)cn3)CC2)n1` (racemic) [Ex 113, rac-trans-6-[(2-{[1-(5-chloropyrimidin-2-yl)piperidin-4-yl]methyl}cyclopropyl)methoxy]-2-methylpyrimidine-4-carbonitrile], with 50 to 200 nM; and `Clc1cnc(N2CCC(C3CC3CCOc3ccc(-n4cnnn4)cc3)CC2)nc1` (single isomer, unassigned) [Ex 83cF, cis-5-chloro-2-[4-(2-{2-[4-(1H-tetrazol-1-yl)phenoxy]ethyl}cyclopropyl)piperidin-1-yl]pyrimidine], with under 10 nM. `Clc1cnc(N2CCC([C@@H]3C[C@@H]3CCOc3ccc(-n4ccnn4)cc3)CC2)nc1` (single isomer, unassigned) [Ex 83aS, cis-5-chloro-2-[4-(2-{2-[4-(1H-1,2,3-triazol-1-yl)phenoxy]ethyl}cyclopropyl)piperidin-1-yl]pyrimidine]: the EC50 was under 10 nM.

`Cc1cnc(N2CCC(C3CC3CCOc3ccc(-n4cnnn4)c(F)c3)CC2)nc1` (racemic) [Ex 30e, rac cis-2-[4-(2-{2-[3-fluoro-4-(1H-tetrazol-1-yl)phenoxy]ethyl)cyclopropyl)piperidin-1-yl]-5-methylpyrimidine]: the EC50 was under 10 nM. For `Cc1nc(C#N)cc(OCC[C@@H]2C[C@@H]2C2CCN(c3ccc(Cl)cn3)CC2)n1` (racemic) [Ex 43, Rac-cis-6-(2-{2-[1-(5-chloropyridin-2-yl)piperidin-4-yl]cyclopropyl}ethoxy)-2-methylpyrimidine-4-carbonitrile] the value was under 10 nM; for `Cc1nnc(-c2ccc(OCC[C@H]3C[C@H]3C3CCN(c4ncc(Cl)cc4Cl)CC3)cc2F)o1` (racemic) [Ex 88, Rac-cis-3,5-dichloro-2-[4-(2-{2-[3-fluoro-4-(5-methyl-1,3,4-oxadiazol-2-yl)phenoxy]ethyl}cyclopropyl)piperidin-1-yl]pyridine], over 200 nM. `Clc1cnc(N2CCC(C3CC3CCOc3ccc(-c4cnoc4)cc3)CC2)nc1` (racemic) [Ex 20, rac cis-5-chloro-2-(4-{2-[2-(4-isoxazol-4-ylphenoxy)ethyl]cyclopropyl)piperidin-1-yl)pyrimidine]: the EC50 fell in the range of 50 to 200 nM.

In the case of `Fc1cc(OCCC2CC2C2CCN(c3ncc(Cl)cn3)CC2)ccc1-n1cnnn1` (single isomer, unassigned) [Ex 83dF, cis-5-chloro-2-[4-(2-{2-[3-fluoro-4-(1H-tetrazol-1-yl)phenoxy]ethyl}cyclopropyl)piperidin-1-yl]pyrimidine], the EC50 was in the range of 10 to 50 nM. In the case of `Clc1cnc(N2CCC(C3CC3CCOc3ccncc3)CC2)nc1` (racemic) [Ex 98, rac-trans-5-chloro-2-(4-{2-[2-(pyridin-4-yloxy)ethyl]cyclopropyl}piperidin-1-yl)pyrimidine], the EC50 is 50 to 200 nM. Consider `Cc1nc(C#N)cc(OCC[C@@H]2C[C@@H]2C2CCN(c3cc(C)c(Cl)cn3)CC2)n1` (racemic) [Ex 45, Rac-cis-6-(2-{2-[1-(5-chloro-4-methylpyridin-2-yl)piperidin-4-yl]cyclopropyl}ethoxy)-2-methylpyrimidine-4-carbonitrile], for which the EC50 is 10 to 50 nM. In the case of `O=C(NC1CC1)c1ccc(OCC[C@H]2C[C@@H]2C2CCN(c3ncc(Cl)cn3)CC2)cc1F` [Ex 93, 4-(2-{(1R,2R)-2-[1-(5-chloropyrimidin-2-yl)piperidin-4-yl]cyclopropyl}ethoxy)-N-cyclopropyl-2-fluorobenzamide], the EC50 was under 10 nM.

Regarding `CC(=O)c1ccc(OCC[C@@H]2C[C@@H]2C2CCN(c3ncc(Cl)cn3)CC2)cc1` (racemic) [Ex 35, Rac-cis-1-[4-(2-{2 [1-(5-chloropyrimidin-2-yl)piperidin-4-yl]cyclopropyl}ethoxy)phenyl]ethanone], the EC50 is 50 to 200 nM. Consider `O=C(NC1CC1)c1ccc(OC[C@@H]2C[C@@H]2CC2CCN(c3ncc(Cl)cn3)CC2)cc1F` (racemic) [Ex 117, rac-cis 4-[(2-{[1-(5-chloropyrimidin-2-yl)piperidin-4-yl]methyl}cyclopropyl)methoxy]-N-cyclopropyl-2-fluorobenzamide], for which the EC50 was in the range of 10 to 50 nM. On to `Clc1cnc(N2CCC(C3CC3CCOc3ccc(-c4nnco4)cc3)CC2)nc1` (racemic) [Ex 15, rac cis-5-chloro-2-[4-(2-{2-[4-(1,3,4-oxadiazol-2-yl)phenoxy]ethyl}cyclopropyl)piperidin-1-yl]pyrimidine], for which the EC50 lay in the range of 10 to 50 nM. Then `Cc1nnc(-c2ccc(OCC[C@H]3C[C@@H]3C3CCN(c4ncc(Cl)cn4)CC3)cc2F)o1` [Ex 96, 5-chloro-2-[4-((1R,2R)-2-{2-[3-fluoro-4-(5-methyl-1,3,4-oxadiazol-2-yl)phenoxy]ethyl}cyclopropyl)piperidin-1-yl)pyrimidine], with 10 to 50 nM; and `Fc1cc(OCCC2CC2C2CCN(c3ncc(Cl)cn3)CC2)ccc1-n1cnnn1` (single isomer, unassigned) [Ex 83dS, cis-5-chloro-2-[4-(2-{2-[3-fluoro-4-(1H-tetrazol-1-yl)phenoxy]ethyl}cyclopropyl)piperidin-1-yl]pyrimidine], with under 10 nM. Turning to `O=C(NC1CC1)c1ccc(OC[C@@H]2C[C@H]2CC2CCN(c3ncc(Cl)cn3)CC2)cc1F` (racemic) [Ex 106, Rac-trans 4-[(2-{[1-(5-chloropyrimidin-2-yl)piperidin-4-yl]methyl}cyclopropyl)methoxy]-N-cyclopropyl-2-fluorobenzamide], the EC50 is under 10 nM.

For the compound `Clc1cnc(N2CCC([C@H]3C[C@@H]3CCOc3ccc(-n4cncn4)cc3)CC2)nc1` [Ex 95, 5-chloro-2-[4-((1R,2R)-2-{2-[4-(1H-1,2,4-triazol-1-yl)phenoxy]ethyl}cyclopropyl)piperidin-1-yl]pyrimidine], the EC50 lay within 10 to 50 nM. Then `Cc1cc(OC[C@@H]2C[C@H]2CC2CCN(c3ncc(Cl)cn3)CC2)nc(C#N)n1` (racemic) [Ex 114, rac-trans-4-[(2-{[1-(5-chloropyrimidin-2-yl)piperidin-4-yl]methyl}cyclopropyl)methoxy]-6-methylpyrimidine-2-carbonitrile], with 50 to 200 nM; and `Cc1nnc(-c2ccc(OC[C@H]3C[C@@H]3CC3CCN(c4ncc(Cl)cn4)CC3)cc2F)o1` [Ex 110, 5-chloro-2-{4-[((1S,2S)-2-{[3-fluoro-4-(5-methyl-1,3,4-oxadiazol-2-yl)phenoxy]methyl}cyclopropyl)methyl]piperidin-1-yl}pyrimidine], with 10 to 50 nM; and `CS(=O)(=O)c1ccc(OCC[C@@H]2C[C@H]2C2CCN(c3ncc(Cl)cn3)CC2)cc1` (racemic) [Ex 90, rac-trans-5-chloro-2-[4-(2-{2-[4-(methylsulfonyl)phenoxy]ethyl}cyclopropyl)piperidin-1-yl]pyrimidine], with 10 to 50 nM. As to `Cc1nnc(-c2cccc(OCCC3CC3C3CCN(c4ncc(Cl)cn4)CC3)c2)o1` (racemic) [Ex 8, rac cis-5-chloro-2-[4-(2-{2-[3-(5-methyl-1,3,4-oxadiazol-2-yl)phenoxy]ethyl}cyclopropyl)piperidin-1-yl]pyrimidine], the concentration giving a half-maximal response (EC50) is over 200 nM. Then `Clc1cnc(N2CCC(C3CC3CCOc3ccncn3)CC2)nc1` (racemic) [Ex 49, Rac-cis-5-chloro-2-(4-{2-[2-(pyrimidin-4-yloxy)ethyl]cyclopropyl}piperidin-l-yl)pyrimidine], with 50 to 200 nM.

For `Clc1cnc(N2CCC(C3CC3CCOc3ccc(-n4nccn4)cc3)CC2)nc1` (racemic) [Ex 28, rac cis-5-chloro-2-[4-(2-{2-[4-(2H-1,2,3-triazol-2-yl)phenoxy]ethyl}cyclopropyl)piperidin-1-yl]pyrimidine], the EC50 is 50 to 200 nM. As for `Clc1cnc(N2CCC(C3CC3CCOc3ccc(-c4cocn4)cc3)CC2)nc1` (racemic) [Ex 19, rac cis-5-chloro-2-[4-(2-{2-[4-(1,3-oxazol-4-yl)phenoxy]ethyl}cyclopropyl)piperidin-1-yl]pyrimidine], the EC50 was in the range of 10 to 50 nM. In the case of `N#Cc1ccc(OCC[C@H]2C[C@@H]2C2CCN(c3ncc(Cl)cn3)CC2)cc1F` [Ex 94, 4-(2-{(1R,2R)-2-[1-(5-chloropyrimidin-2-yl)piperidin-4-yl]cyclopropyl}ethoxy)-2-fluorobenzonitrile], the EC50 fell in the range of 50 to 200 nM.
